Molecules are shown by their SMILES. A value given as a limit tells only on which side of the number the result lay.

In US11104661B1, “Inhibiting human integrin (α-4) (β-7)” (Morphic Therapeutic, Inc., priority 2019, dated 2021) one finds IC50 data, which are given here for 38 compounds.

The first experiment deals with T1, integrin α4β7 (Homo sapiens, UniProt P13612+P26010).
T1 sequence (P13612 35-977 limits assumed): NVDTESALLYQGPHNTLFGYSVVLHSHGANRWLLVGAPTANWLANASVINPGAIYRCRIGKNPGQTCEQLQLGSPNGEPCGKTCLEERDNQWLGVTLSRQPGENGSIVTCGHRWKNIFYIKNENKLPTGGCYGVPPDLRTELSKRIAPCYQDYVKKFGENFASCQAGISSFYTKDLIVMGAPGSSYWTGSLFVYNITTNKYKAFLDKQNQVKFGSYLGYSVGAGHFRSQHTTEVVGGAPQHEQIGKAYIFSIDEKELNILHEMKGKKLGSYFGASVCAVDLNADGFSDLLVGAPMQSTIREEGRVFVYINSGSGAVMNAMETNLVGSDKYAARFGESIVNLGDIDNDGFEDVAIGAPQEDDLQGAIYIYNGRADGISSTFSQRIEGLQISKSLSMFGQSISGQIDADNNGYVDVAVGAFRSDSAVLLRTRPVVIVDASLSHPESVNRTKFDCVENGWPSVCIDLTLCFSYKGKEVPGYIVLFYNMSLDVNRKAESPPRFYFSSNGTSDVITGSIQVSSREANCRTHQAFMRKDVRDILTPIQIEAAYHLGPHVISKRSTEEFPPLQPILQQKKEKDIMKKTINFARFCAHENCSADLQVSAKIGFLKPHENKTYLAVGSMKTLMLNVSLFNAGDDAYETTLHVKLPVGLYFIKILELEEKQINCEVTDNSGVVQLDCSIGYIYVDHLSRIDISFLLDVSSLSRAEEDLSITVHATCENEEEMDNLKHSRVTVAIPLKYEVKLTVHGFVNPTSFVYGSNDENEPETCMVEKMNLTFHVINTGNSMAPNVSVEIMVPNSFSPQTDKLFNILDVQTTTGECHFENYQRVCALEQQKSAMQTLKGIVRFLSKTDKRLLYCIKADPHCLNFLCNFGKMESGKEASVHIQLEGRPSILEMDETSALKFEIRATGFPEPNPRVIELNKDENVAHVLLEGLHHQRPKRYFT
T1 sequence (P26010 20-723 limits assumed): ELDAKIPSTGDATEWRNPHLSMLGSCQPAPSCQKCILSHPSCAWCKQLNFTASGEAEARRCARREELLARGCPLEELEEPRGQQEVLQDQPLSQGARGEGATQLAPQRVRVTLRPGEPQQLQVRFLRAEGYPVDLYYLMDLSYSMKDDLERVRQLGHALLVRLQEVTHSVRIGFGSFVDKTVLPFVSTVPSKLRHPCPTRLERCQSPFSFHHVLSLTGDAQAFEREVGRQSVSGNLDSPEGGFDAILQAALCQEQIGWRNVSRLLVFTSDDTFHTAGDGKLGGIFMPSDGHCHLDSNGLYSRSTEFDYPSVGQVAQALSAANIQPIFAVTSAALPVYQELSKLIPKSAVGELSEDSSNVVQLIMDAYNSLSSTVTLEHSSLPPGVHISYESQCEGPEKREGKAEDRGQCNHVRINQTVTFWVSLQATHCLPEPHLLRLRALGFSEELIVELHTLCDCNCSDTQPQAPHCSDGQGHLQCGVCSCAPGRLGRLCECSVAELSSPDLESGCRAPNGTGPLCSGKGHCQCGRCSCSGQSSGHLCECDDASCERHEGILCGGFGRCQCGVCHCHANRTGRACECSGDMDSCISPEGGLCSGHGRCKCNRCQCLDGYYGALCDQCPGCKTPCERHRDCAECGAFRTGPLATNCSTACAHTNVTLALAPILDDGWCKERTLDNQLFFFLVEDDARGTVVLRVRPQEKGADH
The experiment can be described thus: Fluorescence polarization (FP) assay for α4β7 binding (Example 5). The settings on record: competition with fluorescein-labeled peptide, 6.5 nM integrin α4β7, 2 mM manganese chloride; Table 3. The procedure:
Compounds of Formula (I) were evaluated using a fluorescent polarization (FP) assay. FP assays are used to evaluate potency of compounds on purified protein. The FP assays consists of measuring purified integrin αβ heterodimer ecto domains or headpiece binding to surrogate or truncated ligands.
Three in vitro assays were used to examine the α4β7 mechanistic process used by cells: 1) ligand:receptor affinity, 2) the avidity of those interactions on a cell's surface, and 3) how those interactions fare under an imposing force. In Example 5, a Fluorescence Polarization (FP) assay is used to measure compound activity through binding competition with the fluorescein-labeled peptide. In Example 6, the potency of compounds against α4β7 is measured in the cell-based ligand binding assay (LBA), using RPMI 8866 cells incubated with the compound samples in competition with soluble MAdCAM-1 ligand. In Example 7, activity of compounds is evaluated in a cell adhesion assay that mechanistically tests what occurs in vivo when trafficking cells utilize α4β7 to adhere to MAdCAM-1 expressing HEVs of the gut during the extravasation process. In the cell adhesion assay of Example 7, a MAdCAMI1-(Fc) is coated on plastic, and α4β7 expressing cells (RPMI-8866) are allowed to adhere to the coated surface in the presence of the test compounds. Next, the force of washing with buffer is applied to cells thereby testing the strength of that adhesion. Unattached cells are removed and the remaining adherent cells are quantified.
Fluorescence Polarization (FP) assays were used to measure compound activity through binding competition with the fluorescein-labeled peptide […]{Lys(FITC)}. In the assay, 6.5 nM of integrin α4β7 was incubated with the test compound in 2 mM manganese chloride, 0.1 mM calcium chloride, 20 mM HEPES buffer at pH 7.3, 150 mM sodium chloride, 0.01% Triton X-100, 2% DMSO, and 3 nM of the fluorescein-labeled peptide. Running the assays in 384-well plates, the integrin protein was pre-incubated with the test compounds for 15 minutes at 22° C. before the fluorescein-labeled peptide was added. After the fluorescein-labeled peptide was added, the assay was incubated at 22° C. for 1 hour and fluorescence polarization was measured. IC50 values were determined by nonlinear regression, four-parameter curve fitting.
A general note: Polarisation of emitted light reports the rotation of a fluorescent probe.
On to `Cc1cc(-c2c(C)cccc2C)cc([C@H](CC(=O)O)NC(=O)C(CC(C)C)n2cc(CCN3CC[C@@H](F)C3)cc(F)c2=O)c1F` (single isomer, unassigned) [AU-P2], for which the IC50 (commonly the concentration at which inhibition is half-maximal) is at most 10 nM.

As for `Cc1cc(-c2c(C)cccc2C)cc([C@H](CC(=O)O)NC(=O)C(CC(C)C)n2cc(CCN3CC(F)C3)cc(F)c2=O)c1F` (single isomer, unassigned) [AV-P2], the IC50 is at most 10 nM.

Turning to `Cc1cc(C)c(-c2cc(C)c(F)c([C@H](CC(=O)O)NC(=O)C(CC(C)C)n3cc(CCN(C)C)c(C(F)(F)F)cc3=O)c2)c(C)c1` (single isomer, unassigned) [AC-P2], the IC50 is at most 10 nM.

Turning to `Cc1cc(-c2c(C)ccc(F)c2C)cc([C@H](CC(=O)O)NC(=O)C(CC(C)C)n2cc(CCN3CCC3)c(C(F)(F)F)cc2=O)c1F` (single isomer, unassigned) [AF-P2], the IC50 was at most 10 nM.

Compound `Cc1cccc(C)c1-c1cc([C@H](CC(=O)O)NC(=O)C(CC(C)C)n2cc(CCN3CCC3)c(C(F)(F)F)cc2=O)c(F)c(C(F)(F)F)c1` (single isomer, unassigned) [G-P2] had an IC50 of at most 10 nM.

`COc1ccc(C)c(-c2cc(C)c(F)c([C@H](CC(=O)O)NC(=O)C(CC(C)C)n3cc(CCN4CCC4)c(C(F)(F)F)cc3=O)c2)c1C` (single isomer, unassigned) [AG-P2] registered an IC50 of at most 10 nM.

Still in this experiment, the particulars now being: competition with fluorescein-labeled peptide, 6.5 nM integrin α4β7, 2 mM manganese chloride; Table 4 comparative compounds.
In turn, `Cc1cccc(C)c1-c1cccc([C@H](CC(=O)O)NC(=O)[C@H](CC(C)C)n2cc(CN3CC(F)C3)ccc2=O)c1` [drawing 594] had an IC50 of at most 10 nM.

Take `Cc1cccc(C)c1-c1cccc([C@H](CC(=O)O)NC(=O)[C@H](CC(C)C)n2cc(CN3CC(F)C3)ccc2=O)c1` [drawing 589]: the IC50 was at most 10 nM.

On to `Cc1cccc(C)c1-c1cncc([C@H](CC(=O)O)NC(=O)[C@H](CC(C)C)N2CC[C@@H](C(F)(F)F)CC2=O)c1`, for which the IC50 was at most 10 nM.

As to `Cc1ccccc1-c1cc([C@H](CC(=O)O)NC(=O)C(CC(C)C)n2ccccc2=O)ccc1C#N` (some centres unmarked), the IC50 is at most 10 nM.

Compound `CC(C)C[C@@H](C(=O)N[C@@H](CC(=O)O)c1ccc(-c2ccccc2)cc1)n1cc(CCN2CC(F)C2)cc(F)c1=O` returned an IC50 of at most 10 nM.

`Cc1ccccc1-c1cc([C@H](CC(=O)O)NC(=O)C(CC(C)C)n2ccccc2=O)ccn1` (some centres unmarked) came in with an IC50 of 10 to 500 nM.

`Cc1ccccc1-c1cccc([C@H](CC(=O)O)NC(=O)[C@H](CC(C)C)n2ccccc2=O)c1` registered an IC50 of 10 to 500 nM.

`COc1cccc(F)c1-c1cccc([C@H](CC(=O)O)NC(=O)[C@H](CC(C)C)n2cnc3ccccc3c2=O)c1` showed an IC50 of 10 to 500 nM.

`CC(C)C[C@@H](C(=O)N[C@@H](CC(=O)O)c1ccc(-c2ccccc2)cc1)n1cc(CCN(C)C)c(C(F)(F)F)cc1=O` registered an IC50 of 10 to 500 nM.

In turn, `Cc1ccn([C@@H](CC(C)C)C(=O)N[C@@H](CC(=O)O)c2cncc(-c3c(C)cccc3C)c2)c(=O)c1` displayed an IC50 of at most 10 nM.

In turn, `Cc1cccc(C)c1-c1cccc([C@H](CC(=O)O)NC(=O)[C@H](CC(C)C)n2cc(CN3CC(F)C3)ccc2=O)c1` [drawing 585] returned an IC50 of at most 10 nM.

In turn, `Cc1cccc(C)c1-c1cccc([C@H](CC(=O)O)NC(=O)[C@H](CC(C)C)n2cc(CN3CC(F)C3)ccc2=O)c1` [drawing 604] gave an IC50 of at most 10 nM.

The compound `Cc1ccccc1-c1cccc([C@H](CC(=O)O)NC(=O)[C@H](CC(C)C)n2ccncc2=O)c1` gave an IC50 of 10 to 500 nM.

The compound `Cc1cccc(C)c1-c1cccc([C@H](CC(=O)O)NC(=O)[C@H](CC(C)C)n2cc(CN3CC(F)C3)ccc2=O)c1` [drawing 577] came in with an IC50 of at most 10 nM.

As for `Cc1cccc(C)c1-c1cncc([C@H](CC(=O)O)NC(=O)[C@H](CC(C)C)n2ccc(C(F)(F)F)cc2=O)c1`, the half-inhibitory concentration (IC50) is at most 10 nM.

`Cc1cccc(C)c1-c1cccc([C@H](CC(=O)O)NC(=O)[C@H](CC(C)C)n2cc(CN3CC[C@@H](F)C3)ccc2=O)c1` returned an IC50 of at most 10 nM.

`Cc1cccc(C)c1-c1cncc([C@H](CC(=O)O)NC(=O)C(CC(C)C)n2cc(C(F)(F)F)ccc2=O)c1` (some centres unmarked) gave a half-inhibitory concentration (IC50) of at most 10 nM.

For `Cc1cccc(C)c1-c1cccc([C@H](CC(=O)O)NC(=O)[C@H](CC(C)C)n2cc(CN3CC(F)C3)ccc2=O)c1` [drawing 599], the IC50 is at most 10 nM.

For `Cc1ccccc1-c1cccc([C@H](CC(=O)O)NC(=O)[C@H](CC(C)C)n2cccc(C)c2=O)c1`, the IC50 is at most 10 nM.

In turn, `Cc1ccc([C@@H](C(=O)N[C@@H](CC(=O)O)c2cncc(-c3c(C)cccc3C)c2)N2CC(C)CCC2=O)cc1` (some centres unmarked) came in with an IC50 of at most 10 nM.

As to `Cc1cccc(C)c1-c1cccc([C@H](CC(=O)O)NC(=O)[C@H](CC(C)C)n2ccc(CCN(C)C)cc2=O)c1`, the IC50 was at most 10 nM.

The compound `Cc1cccc(C)c1-c1cncc([C@H](CC(=O)O)NC(=O)[C@H](CC(C)C)n2ccccc2=O)c1` gave a half-inhibitory concentration (IC50) of at most 10 nM.

For `Cc1cccc(C)c1-c1cccc([C@H](CC(=O)O)NC(=O)[C@H](CC(C)C)n2cccc(CCN(C)C)c2=O)c1`, the IC50 is at most 10 nM.

Compound `Cc1cccc(C)c1-c1cc([C@H](CC(=O)O)NC(=O)[C@H](CC(C)C)n2ccccc2=O)ccn1` displayed a half-inhibitory concentration (IC50) of 10 to 500 nM.

In turn, `Cc1cccc(C)c1-c1cccc([C@H](CC(=O)O)NC(=O)[C@H](CC(C)C)n2cc(CN3CC(F)C3)ccc2=O)c1` [drawing 572] displayed an IC50 of at most 10 nM.

For `Cc1cccc(C)c1-c1cncc([C@H](CC(=O)O)NC(=O)[C@H](CC(C)C)n2cc(CN3CC(F)C3)ccc2=O)c1`, the IC50 was at most 10 nM.

For `Cc1cccc(C)c1-c1cccc([C@H](CC(=O)O)NC(=O)[C@H](CC(C)C)n2cc(CCN(C)C)ccc2=O)c1`, the IC50 is at most 10 nM.

Take `COc1ccc([C@H](CC(=O)O)NC(=O)C(CC(C)C)n2ccccc2=O)cc1-c1ccccc1C` (some centres unmarked): the half-inhibitory concentration (IC50) lay within 10 to 500 nM.

Consider `Cc1ccccc1-c1cc([C@H](CC(=O)O)NC(=O)[C@H](CC(C)C)n2ccccc2=O)ccc1C`, for which the concentration for half-maximal inhibition (IC50) lay within 10 to 500 nM.

`CC(C)C[C@@H](C(=O)N[C@@H](CC(=O)O)c1ccc(-c2ccc(F)cc2)cc1)n1cc(CCN2CC(F)C2)cc(F)c1=O` showed an IC50 of at most 10 nM.

Take `CC(C)C[C@@H](C(=O)N[C@@H](CC(=O)O)c1ccc(-c2ccc(F)cc2)cc1)n1cc(CCN(C)C)c(C(F)(F)F)cc1=O`: the IC50 was at most 10 nM.

As for `COC[C@@H](C(=O)N[C@@H](CC(=O)O)c1cccc(-c2c(C)cccc2C)c1)n1ccc(C)cc1=O`, the 50% inhibitory concentration (IC50) lay within 10 to 500 nM.
